Test results: ChEMBL document CHEMBL1201862, “PubChem BioAssay data set” (2004)
Active and inactive are the calls of the source. Cut-off read from the data, not from the text of the source, for most assays here: actives have a measured EC50 and inactives only a lower limit.

What was measured:
[1] = NIH-3T3 fibroblast cytotoxicity, dose response, cytotoxicity control, cell-based, fluorescence, Alamar Blue, secondary assay (AID 2327); type: functional;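 note: NIH-3T3 mouse fibroblasts cultured with fluconazole at 8 µg/mL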
[2] = biological target: T1, Serine/threonine-protein phosphatase (Candida dubliniensis (strain CD36 / CBS 7987 / NCPF 3949 / NRRLY-17841) (Yeast), UniProt B9W6M3); assay: calcineurin pathway inhibitors in yeast reporter, dose response, S. cerevisiae, CDRE-lacZ, luminescence, secondary (AID 2388); type: functional, cell-based;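 note: yeast reporter cells carrying a calcineurin-responsive lacZ construct stimulated with calcium chloride; luminescent beta-galactosidase reporter signal in whole cells rather than isolated phosphatase activity; potency for inhibition where a drop in reporter signal means calcineurin blockade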
T1 sequence (B9W6M3 whole entry): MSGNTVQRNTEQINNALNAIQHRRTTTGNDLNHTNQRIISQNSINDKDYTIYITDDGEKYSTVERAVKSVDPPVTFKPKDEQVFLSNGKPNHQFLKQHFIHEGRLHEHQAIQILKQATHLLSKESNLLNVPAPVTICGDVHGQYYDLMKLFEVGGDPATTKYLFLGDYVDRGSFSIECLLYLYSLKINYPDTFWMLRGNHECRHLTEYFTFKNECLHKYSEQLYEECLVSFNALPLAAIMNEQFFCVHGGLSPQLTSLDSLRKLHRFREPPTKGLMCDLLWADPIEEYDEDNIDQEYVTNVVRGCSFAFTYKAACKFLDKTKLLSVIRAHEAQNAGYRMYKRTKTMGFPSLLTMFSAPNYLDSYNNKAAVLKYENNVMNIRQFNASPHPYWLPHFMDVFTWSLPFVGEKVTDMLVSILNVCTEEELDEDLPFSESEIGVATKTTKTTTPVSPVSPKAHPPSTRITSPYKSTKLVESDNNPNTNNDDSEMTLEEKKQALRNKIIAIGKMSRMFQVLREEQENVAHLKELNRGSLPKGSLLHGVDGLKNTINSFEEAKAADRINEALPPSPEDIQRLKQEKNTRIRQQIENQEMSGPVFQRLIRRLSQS

[3] = Counterscreen for AddAB inhibitors: absorbance-based bacterial cell-based high throughput dose response assay for inhibitors of bacterial viability. [Related pubchem assays (depositor defined):AID435030, AID449728, AID449731, AID488942, AID488955, AID488956]; type: functional
[4] = biological target: ATP-dependent molecular chaperone HSP82 (Candida albicans (strain WO-1) (Yeast), UniProt C4YTQ8); assay: loss of DOC-induced GRE-beta-galactosidase reporter signal, dose response, Hsp90 inhibitor project, S. cerevisiae, luminescence (AID 2400); type: functional, cell-based;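 note: beta-galactosidase luminescence from glucocorticoid response element reporter as proxy for Hsp90 function; inhibitor potency where signal loss means Hsp90 inhibition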
ATP-dependent molecular chaperone HSP82, sequence (C4YTQ8 whole entry): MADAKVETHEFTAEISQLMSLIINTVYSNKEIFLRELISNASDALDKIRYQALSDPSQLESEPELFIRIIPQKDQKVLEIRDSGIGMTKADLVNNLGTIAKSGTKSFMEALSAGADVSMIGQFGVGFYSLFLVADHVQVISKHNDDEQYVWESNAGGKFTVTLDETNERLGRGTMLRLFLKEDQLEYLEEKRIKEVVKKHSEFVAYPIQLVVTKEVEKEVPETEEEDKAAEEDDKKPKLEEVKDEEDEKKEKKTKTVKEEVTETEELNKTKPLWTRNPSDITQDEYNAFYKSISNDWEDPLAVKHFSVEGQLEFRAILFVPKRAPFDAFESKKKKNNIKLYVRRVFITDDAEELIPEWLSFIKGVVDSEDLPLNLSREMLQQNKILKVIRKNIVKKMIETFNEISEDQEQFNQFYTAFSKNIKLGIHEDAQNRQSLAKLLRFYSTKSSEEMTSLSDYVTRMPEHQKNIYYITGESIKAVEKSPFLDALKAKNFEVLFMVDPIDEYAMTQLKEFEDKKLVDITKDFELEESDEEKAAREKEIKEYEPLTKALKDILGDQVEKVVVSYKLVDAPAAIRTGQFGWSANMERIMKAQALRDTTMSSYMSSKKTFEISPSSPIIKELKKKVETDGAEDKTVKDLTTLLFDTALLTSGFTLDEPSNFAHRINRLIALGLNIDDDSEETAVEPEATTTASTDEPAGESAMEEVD

| Compound | EC50 [1] | EC50 [2] | IC50 [3] | EC50 [4] |
| --- | --- | --- | --- | --- |
| CCCCC(=O)NC(c1ccc(Cl)cc1)c1ccc2cccnc2c1O (configuration not stated) | 16.6 µM (active) | 24.8 µM (active) | > 119 µM (inactive) | 29.1 µM (active) |
| CCCCC(=O)NC(c1ccco1)c1cc(Cl)c2cccnc2c1O (configuration not stated) | 25 µM (active) | > 180 µM (inactive) | > 119 µM (inactive) | > 160 µM (inactive) |
| O=C(N/N=C/c1ccccc1O)/C(O)=C\C1=NC2(CCCC2)Cc2ccccc21 | 10.5 µM (active) | > 180 µM (inactive) | > 119 µM (inactive) | 22.1 µM (active) |
